The target in assay [1] is T1, Phosphodiesterase 4 (Homo sapiens, UniProt P27815+Q08499+Q07343+Q08493). Nature of the assay: Inhibition of phosphodiesterase type 4 isozyme (PDE4) from the U937 human cell line. The class given is cell-based. Conditions: u-937.
A further assay addresses Phosphodiesterase 3 (Homo sapiens, UniProt Q14432+Q13370). Nature of the assay: Inhibition of phosphodiesterase 3 (PDE3) isolated from the dog aorta. In kind it is protein assay, Canis lupus familiaris. Conditions: target entry is the homologue from another species.
For assay [2], the target named is Phosphodiesterase, PDE1/PDE5 (Homo sapiens, UniProt O76074+P54750+Q01064+Q14123). Nature of the assay: Inhibition of phosphodiesterase 1/5 isozyme (PDE1/5) mixture isolated from the guinea pig trachea. More on the design: species or system Cavia porcellus. As to conditions: target entry is the homologue from another species.
Assay [3] in a line: In vitro inhibition of TNF-alpha release from human peripheral blood monocytes. The class given is functional.
Assay [4] can be described thus: In vitro inhibition of TNF-alpha-release from human whole blood. In kind it is functional.
A short description of assay [5]: In vivo inhibition of LPS-stimulated TNF-alpha release in Wistar rats at 10 mg/kg oral dose. Conditions: Rattus norvegicus. In kind it is functional.
The subject of a further assay is Rattus norvegicus. In words: In vivo inhibition of antigen induced eosinophil recruitment in Brown-Norvway Rats at 10 mg/kg peroral dose. The class given is functional. Conditions: route oral.
Assay [6] has as its target T1, Phosphodiesterase 4. Nature of the assay: PDE4-related emetic activity in ferrets after intravenous administration at 10 mg/kg. The class given is functional, organism-based. Also noted: dose 10 mg/kg. Conditions: Mustela putorius furo, target entry is the homologue from another species.
The target of assay [7] is T1, Phosphodiesterase 4. In words: PDE4-related emetic activity in ferrets after intravenous administration at 40 mg/kg. As to conditions: Mustela putorius furo, target entry is the homologue from another species. Also noted: dose 40 mg/kg. The class given is functional, organism-based.

In the case of `Nc1cc2c3c(c1)C(c1ccccc1)=N[C@@H](NC(=O)c1cc4ccccc4cn1)C(=O)N3CC2`, the IC50 is 0.1 µM on Phosphodiesterase 4 [1]; 48.5 µM against Phosphodiesterase 3; > 100 µM in assay [2]; 0.048 µM in [3]; 3.37 µM in assay [4]. For the same molecule, the values for the inhibition in vivo at 10 mg/kg (in [5]; in the assay on Rattus norvegicus) were -16% and -62.9%, respectively.
For `COc1ccccc1C(=O)N[C@@H]1N=C(c2ccccc2)c2cc(C)cc3c2N(CC3)C1=O`, the values for the half-maximal inhibitory concentration (IC50) (on Phosphodiesterase 4 [1]; against Phosphodiesterase 3; in assay [2]) were 1.3 µM, 28.8 µM and 50.6 µM, respectively.
For `Cc1cc2c3c(c1)C(c1ccccc1)=N[C@@H](NC(=O)c1ccncc1)C(=O)N3CC2`, the R+V on Phosphodiesterase 4 [6] is 0 90 min. For the same molecule, the IC50 on Phosphodiesterase 3 was determined as 35.8 µM; in assay [2], 73.4 µM; in [3] it was 0.99 µM; in assay [4] it was 61 µM. Further, the inhibition in vivo at 10 mg/kg in assay [5] is -25%. Besides, the ED50 with Rattus norvegicus turned out to be 5.06 mg/kg.
Consider `CC(C)(C)OC(=O)Nc1cnccc1C(=O)N[C@@H]1N=C(c2ccccc2)c2cc(N)cc3c2N(CC3)C1=O`, for which the R+V at Phosphodiesterase 4 [6] is 0 90 min. For the same molecule, the IC50 at Phosphodiesterase 3 amounted to 58.2 µM; in [2], 67.7 µM. Further, the inhibition in vivo at 10 mg/kg in [5] was -87%. The same molecule came in with a 50% effective dose (ED50) with Rattus norvegicus of 5.03 mg/kg.
For the molecule `Nc1cnccc1C(=O)N[C@@H]1N=C(c2ccccc2)c2cccc3c2N(CC3)C1=O`, the values for the half-inhibitory concentration (IC50) (on Phosphodiesterase 4 [1]; against Phosphodiesterase 3; in [2]) were 16.2 µM, 90 µM and > 100 µM, respectively.
As for `O=C(N[C@@H]1N=C(c2ccccc2)c2cc([N+](=O)[O-])cc3c2N(CC3)C1=O)c1cccnc1`, at Phosphodiesterase 4 [1], the IC50 came to 10.8 µM.
The same measure, in the same setting: to `O=C(N[C@@H]1N=C(c2ccccc2)c2cc([N+](=O)[O-])cc3c2N(CC3)C1=O)c1cc2ccccc2cn1` belongs > 100 µM.
In the case of `Nc1ccc(C(=O)N[C@@H]2N=C(c3ccccc3)c3cc(N)cc4c3N(CC4)C2=O)cc1`, on Phosphodiesterase 4 [6], the R+V is 0 90 min. Moreover, the IC50 at Phosphodiesterase 4 [1] was determined as 0.69 µM; against Phosphodiesterase 3, 86.8 µM; in assay [2], 93.2 µM; in assay [3], 0.443 µM; in assay [4], 1.52 µM. Moreover, in assay [5], the inhibition in vivo at 10 mg/kg was -71%. In the assay with Rattus norvegicus, this molecule showed an ED50 of 10.8 mg/kg.
Turning to `Cc1cc2c3c(c1)C(c1ccccc1)=N[C@@H](NC(=O)c1cc4ccccc4cn1)C(=O)N3CC2`, the concentration for half-maximal inhibition (IC50) (against Phosphodiesterase 3; in [2]) was > 100 µM each time.
`O=C(N[C@@H]1N=C(c2ccccc2)c2cccc3c2N(CC3)C1=O)c1c(Cl)cncc1Cl`: the IC50 is 4.7 µM against Phosphodiesterase 4 [1], > 100 µM against Phosphodiesterase 3 and > 100 µM in assay [2].
Take `COc1cc2c3c(c1)C(c1ccccc1)=N[C@@H](NC(=O)c1nnc4cc(C)nn4c1C)C(=O)N3CC2`: the 50% inhibitory concentration (IC50) on Phosphodiesterase 4 [1] came out at 2.7 µM; on Phosphodiesterase 3, 46 µM; in assay [2] it was 14.1 µM.
On to `Nc1cc2c3c(c1)C(c1ccccc1)=N[C@@H](NC(=O)c1cc(Cl)c(N)c(Cl)c1)C(=O)N3CC2`, for which the IC50 was 0.04 µM at Phosphodiesterase 4 [1]; 51.6 µM at Phosphodiesterase 3; > 100 µM in assay [2]; 0.011 µM in [3]; 0.438 µM in assay [4]. In the assay with Rattus norvegicus, the inhibition in vivo at 10 mg/kg is -61.8%.
With `O=C(N[C@@H]1N=C(c2ccccc2)c2cc(N3CCCC3)cc3c2N(CC3)C1=O)c1ccncc1`, the IC50 at Phosphodiesterase 4 [1] amounted to 1.4 µM; on Phosphodiesterase 3, 18 µM; in assay [2], 34 µM.
For `O=C(N[C@@H]1N=C(c2ccccc2)c2cccc3c2N(CC3)C1=O)c1cccnc1`, the 50% inhibitory concentration (IC50) against Phosphodiesterase 4 [1] is 10.5 µM; at Phosphodiesterase 3 it was > 100 µM; in assay [2], > 100 µM.
As for `COc1ccccc1C(=O)N[C@@H]1N=C(c2ccccc2)c2cc(N)cc3c2N(CC3)C1=O`, the 50% inhibitory concentration (IC50) on Phosphodiesterase 4 [1] is 0.5 µM; against Phosphodiesterase 3, > 100 µM; in assay [2], 93.2 µM; in [3], 0.123 µM; in [4], 1.06 µM.
As for `CC(=O)Nc1cc2c3c(c1)C(c1ccccc1)=N[C@@H](NC(=O)c1ccncc1)C(=O)N3CC2`, the IC50 at Phosphodiesterase 4 [1] was 0.7 µM; on Phosphodiesterase 3, 70 µM; in assay [2] it was 30.1 µM.
`COc1ccc([C@]2(C#N)CC[C@@H](C(=O)O)CC2)cc1OC1CCCC1` [CILOMILAST]: the R+V at Phosphodiesterase 4 [6] was 59.5 90 min. In addition, the IC50 in assay [4] turned out to be 7.3 µM. This molecule gave an ED50 in assay [5] of 3 mg/kg.
On to `Nc1cc2c3c(c1)C(c1ccccc1)=N[C@@H](NC(=O)c1ccncc1N)C(=O)N3CC2`, for which, on Phosphodiesterase 4 [6], the R+V is 3.5 90 min. The 50% inhibitory concentration (IC50) against Phosphodiesterase 4 [1] is 0.7 µM; against Phosphodiesterase 3, > 100 µM; in [2] it was > 100 µM; in assay [3] it was 0.08 µM; in assay [4], 0.398 µM. Moreover, the figures for the inhibition in vivo at 10 mg/kg (in [5]; with Rattus norvegicus) were -89% and -82%, respectively.
As to `Cc1cc2nnc(C(=O)N[C@@H]3N=C(c4ccccc4)c4cc(N)cc5c4N(CC5)C3=O)c(C)n2n1`, the half-inhibitory concentration (IC50) against Phosphodiesterase 4 [1] was 0.2 µM; on Phosphodiesterase 3 it was 48.6 µM; in [2], 72 µM; in [3], 0.26 µM; in assay [4], 0.75 µM. For the same molecule, in the assay on Rattus norvegicus, the 50% effective dose (ED50) was 1.8 mg/kg.
Turning to `Cc1cc2nnc(C(=O)N[C@@H]3N=C(c4ccccc4)c4cc(N5CCCC5)cc5c4N(CC5)C3=O)c(C)n2n1`, the IC50 at Phosphodiesterase 4 [1] was 0.2 µM; against Phosphodiesterase 3, 22.2 µM; in assay [2], > 100 µM.
As for `Nc1cc2c3c(c1)C(c1ccccc1)=N[C@@H](NC(=O)c1ccncc1)C(=O)N3CC2`, the IC50 on Phosphodiesterase 4 [1] was 0.5 µM; on Phosphodiesterase 3, > 100 µM; in assay [2], > 100 µM; in assay [3] it was 0.48 µM; in assay [4], 1.09 µM. For the same molecule, on Phosphodiesterase 4 [7], the R+V was 0 90 min. Further, in assay [5], the inhibition in vivo at 10 mg/kg was -71%. This molecule showed a 50% effective dose (ED50) in the assay on Rattus norvegicus of 1.89 mg/kg.
For `Cc1cc2c3c(c1)C(c1ccccc1)=N[C@@H](NC(=O)c1c(Cl)cncc1Cl)C(=O)N3CC2`, the 50% inhibitory concentration (IC50) on Phosphodiesterase 4 [1] came out at 1 µM; at Phosphodiesterase 3, 19.5 µM; in assay [2], 38 µM. In the assay with Rattus norvegicus, this molecule yielded an ED50 of 63.7 mg/kg.
Consider `CN(C)c1cc2c3c(c1)C(c1ccccc1)=N[C@@H](NC(=O)c1cc(Cl)c(N)c(Cl)c1)C(=O)N3CC2`, for which the IC50 worked out at 0.2 µM against Phosphodiesterase 4 [1], 3.2 µM at Phosphodiesterase 3 and 5.3 µM in assay [2].
As for `Cc1cc2c3c(c1)C(c1ccccc1)=N[C@@H](NC(=O)c1cc(Cl)c(N)c(Cl)c1)C(=O)N3CC2`, the IC50 was 0.3 µM on Phosphodiesterase 4 [1], 10.3 µM on Phosphodiesterase 3 and > 100 µM in assay [2]. In addition, the inhibition in vivo at 10 mg/kg in the assay on Rattus norvegicus was -21%.
For `Nc1c(Cl)cc(C(=O)N[C@@H]2N=C(c3ccccc3)c3cc(N4CCCC4)cc4c3N(CC4)C2=O)cc1Cl`, the IC50 stood at 0.08 µM at Phosphodiesterase 4 [1], 10.6 µM at Phosphodiesterase 3 and 39.2 µM in assay [2].
Take `O=C(N[C@@H]1N=C(c2ccccc2)c2cccc3c2N(CC3)C1=O)c1ccncc1`: the 50% inhibitory concentration (IC50) against Phosphodiesterase 4 [1] is 20.5 µM; against Phosphodiesterase 3 it was > 100 µM; in assay [2], > 100 µM.
As to `COc1cc2c3c(c1)C(c1ccccc1)=N[C@@H](NC(=O)c1cnc4ccccc4c1)C(=O)N3CC2`, the IC50 against Phosphodiesterase 4 [1] is 1.7 µM; against Phosphodiesterase 3 it was 19.4 µM; in assay [2], 16.1 µM.
Take `Nc1cc2c3c(c1)C(c1ccccc1)=N[C@@H](NC(=O)c1cnc4ccccc4c1)C(=O)N3CC2`: the values for the concentration for half-maximal inhibition (IC50) (on Phosphodiesterase 4 [1]; against Phosphodiesterase 3; in [2]) were 0.2 µM, 53.9 µM and 90.7 µM, respectively.
Regarding `CC(C)(C)OC(=O)Nc1cnccc1C(=O)N[C@@H]1N=C(c2ccccc2)c2cccc3c2N(CC3)C1=O`, the half-inhibitory concentration (IC50) worked out at 6.2 µM against Phosphodiesterase 4 [1], 54.7 µM at Phosphodiesterase 3 and 53.3 µM in assay [2].
With `Nc1cc2c3c(c1)C(c1ccccc1)=N[C@@H](NC(=O)c1c(Cl)cncc1Cl)C(=O)N3CC2`, the IC50 against Phosphodiesterase 4 [1] was 0.2 µM; on Phosphodiesterase 3, 80 µM; in [2], > 100 µM; in assay [3], 0.038 µM; in assay [4], 0.213 µM.
For `O=C(N[C@@H]1N=C(c2ccccc2)c2cccc3c2N(CC3)C1=O)c1cc2ccccc2cn1`, the IC50 on Phosphodiesterase 4 [1] is 5.5 µM; on Phosphodiesterase 3, > 100 µM; in [2] it was > 100 µM.
`COc1cc2c3c(c1)C(c1ccccc1)=N[C@@H](NC(=O)c1ccncc1)C(=O)N3CC2`: the IC50 worked out at 4.4 µM against Phosphodiesterase 4 [1], 40.8 µM against Phosphodiesterase 3 and 16.1 µM in assay [2].
For the molecule `COc1ccc(C2CNC(=O)C2)cc1OC1CCCC1` (configuration not stated) [ROLIPRAM], the IC50 against Phosphodiesterase 3 was > 100 µM; in [3] it was 0.083 µM; in [4], 0.94 µM. Also, in [5], the inhibition in vivo at 10 mg/kg came out at 94%. Further, the median effective dose (ED50) in the assay with Rattus norvegicus was 4.66 mg/kg.
On to `CC(=O)Nc1cc2c3c(c1)C(c1ccccc1)=N[C@@H](NC(=O)c1cc(Cl)c(N)c(Cl)c1)C(=O)N3CC2`, for which the half-inhibitory concentration (IC50) on Phosphodiesterase 4 [1] turned out to be 0.09 µM; on Phosphodiesterase 3, 4.5 µM; in assay [2] it was 3.5 µM.
Consider `Cc1cc2c3c(c1)C(c1ccccc1)=N[C@@H](NC(=O)c1nnc4cc(C)nn4c1C)C(=O)N3CC2`, for which the IC50 against Phosphodiesterase 4 [1] is 0.7 µM; at Phosphodiesterase 3, > 100 µM; in assay [2], > 100 µM; in [3], 5.35 µM; in assay [4] it was > 30 µM. The same molecule showed an ED50 in the assay with Rattus norvegicus of 33.9 mg/kg.

A word on the IC50: it is the concentration that gives 50% inhibition. By inhibition in vivo is commonly meant the relative decrease from the control value, in per cent. The ED50 is the dose at which the effect has come halfway, by size or by number of responders. Higher therefore signals a need for a large dose.
